Measured values reported in patent US20250179103A1, “6-OXODECAHYDROPYRROLO[1,2-A][1,5]DIAZOCINE AND 6-OXODECAHYDRO-4H-PYRROLO[2,1-D][1,5]THIAZOCINE DERIVATIVES AS STAT3 AND STAT6 MODULATORS FOR THE TREATMENT OF CANCER AND INFLAMMATORY CONDITIONS” (Recludix Pharma, Inc., priority 2022, published 2025).

Tests used:
[1] = target: T1, Recombinant STAT6 protein (STAT6(W123-T658)) (Homo sapiens, UniProt P42226); assay: STAT6 Fluorescence Polarization (FP) Assay; type: binding; details: STAT6(W123-T658) 250 nM, probe 5-FAM-ApYKPFQDLI-NH2 2 nM, 45-minute incubation
T1 construct: Recombinant STAT6 protein (STAT6(W123-T658))
T1 sequence (P42226 123-658): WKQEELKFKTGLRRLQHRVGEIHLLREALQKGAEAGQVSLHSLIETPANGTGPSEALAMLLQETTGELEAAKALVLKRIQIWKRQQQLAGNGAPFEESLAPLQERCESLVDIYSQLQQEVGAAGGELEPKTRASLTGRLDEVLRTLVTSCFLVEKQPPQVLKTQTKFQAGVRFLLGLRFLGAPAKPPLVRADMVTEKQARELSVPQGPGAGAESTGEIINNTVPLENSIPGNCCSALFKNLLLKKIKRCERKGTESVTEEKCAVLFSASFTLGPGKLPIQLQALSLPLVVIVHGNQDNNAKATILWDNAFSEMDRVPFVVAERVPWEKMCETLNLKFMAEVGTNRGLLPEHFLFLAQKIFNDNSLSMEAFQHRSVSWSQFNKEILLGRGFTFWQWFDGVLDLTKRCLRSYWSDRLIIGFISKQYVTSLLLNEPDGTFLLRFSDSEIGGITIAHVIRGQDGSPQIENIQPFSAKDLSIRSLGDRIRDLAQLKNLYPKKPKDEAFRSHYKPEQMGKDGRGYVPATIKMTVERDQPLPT
How it was run: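 Displacement of a fluorescent phosphotyrosine peptide (5-FAM-ApYKPFQDLI-NH2, 2 nM) from STAT6(W123-T658) (250 nM), 1% DMSO, pH 7.4 HEPES buffer. After 45 min at room temperature, polarization (mP) was plotted versus log compound concentration and fitted by nonlinear regression to give IC50.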

[2] = target: T2, Recombinant STAT3 protein (STAT3(G127-I722)) (Homo sapiens, UniProt P40763); assay: STAT3 Fluorescence Polarization (FP) Assay; type: binding; details: STAT3(G127-I722) 25 nM, probe 5-FAM-GpYLPQTV-NH2 2 nM, 45-minute incubation
T2 construct: Recombinant STAT3 protein (STAT3(G127-I722))
How it was run: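 STAT3(G127-I722), 25 nM, was mixed with 2 nM 5-FAM-GpYLPQTV-NH2 probe in HEPES pH 7.4 buffer with 1% DMSO and serially diluted compound. FP (mP) was read after 45 min at room temperature. IC50 came from nonlinear regression.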

T2 sequence (P40763 127-722): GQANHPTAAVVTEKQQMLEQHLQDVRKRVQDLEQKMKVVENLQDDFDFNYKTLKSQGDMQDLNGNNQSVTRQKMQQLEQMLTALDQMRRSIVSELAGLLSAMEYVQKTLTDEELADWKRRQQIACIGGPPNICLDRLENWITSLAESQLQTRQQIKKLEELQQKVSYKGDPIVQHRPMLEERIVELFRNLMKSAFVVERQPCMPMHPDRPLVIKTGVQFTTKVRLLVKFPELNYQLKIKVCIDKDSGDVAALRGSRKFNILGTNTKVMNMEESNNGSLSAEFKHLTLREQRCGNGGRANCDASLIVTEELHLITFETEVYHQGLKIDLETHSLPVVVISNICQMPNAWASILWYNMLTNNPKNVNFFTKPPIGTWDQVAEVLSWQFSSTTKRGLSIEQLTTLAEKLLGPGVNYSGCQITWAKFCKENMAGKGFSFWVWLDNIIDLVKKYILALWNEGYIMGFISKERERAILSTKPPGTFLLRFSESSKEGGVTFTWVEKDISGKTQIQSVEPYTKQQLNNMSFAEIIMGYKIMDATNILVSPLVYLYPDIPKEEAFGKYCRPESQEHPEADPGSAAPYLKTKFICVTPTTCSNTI

SMILES	IC50 [1] [µM]	IC50 [2] [µM]
CC(C)(CC(=O)N1CC[C@H]2CC[C@@H](C(=O)N3CC(c4cccnc4)C3)N2C(=O)[C@@H](NC(=O)c2cc3cc(C(F)(F)P(=O)(O)O)ccc3s2)C1)C1CCCCC1 [Compound 269, ((2-(((5S,8S,10aR)-3-(3-cyclohexyl-3-methylbutanoyl)-6-oxo-8-(3-(pyridin-3-yl)azetidine-1-carbonyl)decahydropyrrolo[1,2-a][1,5]diazocin-5-yl)carbamoyl)benzo[b]thiophen-5-yl)difluoromethyl)phosphonic acid]	0.3 to 3	≤ 0.1
O=C(N[C@H]1CN(Cc2ccn3ccnc3c2)CC[C@H]2CC[C@@H](C(=O)N3CC(c4cccnc4)C3)N2C1=O)c1cc2cc(C(F)(F)P(=O)(O)O)ccc2s1 [Compound 273, (difluoro(2-(((5S,8S,10aR)-3-(imidazo[1,2-a]pyridin-7-ylmethyl)-6-oxo-8-(3-(pyridin-3-yl)azetidine-1-carbonyl)decahydropyrrolo[1,2-a][1,5]diazocin-5-yl)carbamoyl)benzo[b]thiophen-5-yl)methyl)phosphonic acid]	3 to 30	≤ 0.1
COc1cc(CN2CC[C@H]3CC[C@@H](C(=O)N4CC(c5cccnc5)C4)N3C(=O)[C@@H](NC(=O)c3cc4cc(C(F)(F)P(=O)(O)O)ccc4s3)C2)ccc1-n1cnc(C)c1 [Compound 275, (difluoro(2-(((5S,8S,10aR)-3-(3-methoxy-4-(4-methyl-1H-imidazol-1-yl)benzyl)-6-oxo-8-(3-(pyridin-3-yl)azetidine-1-carbonyl)decahydropyrrolo[1,2-a][1,5]diazocin-5-yl)carbamoyl)benzo[b]thiophen-5-yl)methyl)phosphonic acid]	3 to 30	≤ 0.1
O=C(N[C@H]1CN(CC(F)(F)F)CC[C@H]2CC[C@@H](C(=O)N3CC(C(=O)N4CCOCC4)C3)N2C1=O)c1cc2cc(C(F)(F)P(=O)(O)O)ccc2s1 [Compound 277, (difluoro(2-(((5S,8S,10aR)-8-(3-(morpholine-4-carbonyl)azetidine-1-carbonyl)-6-oxo-3-(2,2,2-trifluoroethyl)decahydropyrrolo[1,2-a][1,5]diazocin-5-yl)carbamoyl)benzo[b]thiophen-5-yl)methyl)phosphonic acid]	3 to 30	≤ 0.1
CCN1CC[C@H]2CC[C@@H](C(=O)N3CC(C(=O)N4CCOCC4)C3)N2C(=O)[C@@H](NC(=O)c2cc3cc(C(F)(F)P(=O)(O)O)ccc3s2)C1 [Compound 278, ((2-(((5S,8S,10aR)-3-ethyl-8-(3-(morpholine-4-carbonyl)azetidine-1-carbonyl)-6-oxodecahydropyrrolo[1,2-a][1,5]diazocin-5-yl)carbamoyl)benzo[b]thiophen-5-yl)difluoromethyl)phosphonic acid]	3 to 30	0.1 to 1
CC(=O)N1CC[C@H]2CC[C@@H](C(=O)N3CC(c4ccn(C)c(=O)c4)CC34CC4)N2C(=O)[C@@H](NC(=O)c2ccc3ccc(C(F)P(=O)(O)O)cc3c2)C1 (stereo partly drawn) [Compound 354, ((7-(((5S,8S,10a R)-3-acetyl-8-(6-(1-methyl-2-oxo-1,2-dihydropyridin-4-yl)-4-azaspiro[2.4]heptane-4-carbonyl)-6-oxodeca-hydropyrrolo [1,2-a][1,5]diazocin-5-yl)carbamoyl)naphthalen-2-yl)fluoromethyl) phosphonic acid]	≤ 0.3	> 10
CC(=O)N1CC[C@H]2CC[C@@H](C(=O)N3CCC(c4cccnc4)C3)N2C(=O)[C@@H](NC(=O)c2ccc3ccc(C(F)P(=O)(O)O)cc3c2)C1 (stereo partly drawn) [Compound 355, ((7-(((5S,8S,10a R)-3-acetyl-6-oxo-8-(3-(pyridin-3-yl)pyrrolidine-1-carbonyl)decahydro-pyrrolo [1,2-a][1,5]diazocin-5-yl)carbamoyl)naphthalen-2-yl)fluoromethyl) phosphonic acid]	0.3 to 3	1 to 10
CC(=O)N1CC[C@H]2CC[C@@H](C(=O)N3CC(c4ccn(C)c(=O)c4)CC34CC4)N2C(=O)[C@@H](NC(=O)c2ccc3ccc(CP(=O)(O)O)cc3c2)C1 (stereo partly drawn) [Compound 356, ((7-(((5S,8S,10a R)-3-acetyl-8-(6-(1-methyl-2-oxo-1,2-dihydropyridin-4-yl)-4-azaspiro[2.4]heptane-4-carbonyl)-6-oxodeca-hydropyrrolo [1,2-a][1,5]diazocin-5-yl)carbamoyl)naphthalen-2-yl)methyl) phosphonic acid]	0.3 to 3	> 10
O=C(N[C@H]1CN(C(=O)c2ncn3ccccc23)CC[C@H]2CC[C@@H](C(=O)N3CCOCC3)N2C1=O)c1ccc2ccc(C(F)P(=O)(O)O)cc2c1 (stereo partly drawn) [Compound 357, (fluoro(7-(((5S,8S,10aR)-3-(imidazo[1,5-a]pyridine-1-carbonyl)-8-(morpholine-4-carbonyl)-6-oxodecahydro-pyrrolo[1,2-a][1,5]diazocin-5-yl)carbamoyl)naphthalen-2-yl)methyl)phosphonic acid]	0.3 to 3	> 10

More lines, now with the values ahead:

IC50 [1] [µM]	IC50 [2] [µM]	SMILES
≤ 0.3	0.1 to 1	N#Cc1ccccc1-c1ccc(NC(=O)[C@@H]2CC[C@@H]3CCN(C(=O)Cc4ccccc4)C[C@H](NC(=O)c4cc5cc(C(F)(F)P(=O)(O)O)ccc5[nH]4)C(=O)N32)cc1 [Compound 266, ((2-(((5S,8S,10aR)-8-((2′-cyano-[1,1′-biphenyl]-4-yl)carbamoyl)-6-oxo-3-(2-phenylacetyl)decahydropyrrolo[1,2-a][1,5]diazocin-5-yl)carbamoyl)-1H-indol-5-yl)difluoromethyl)phosphonic acid]
0.3 to 3	1 to 10	O=C(N[C@H]1CN(S(=O)(=O)CCc2ccccc2)CC[C@H]2CC[C@@H](C(=O)Nc3ccc(-c4ccccc4)cc3)N2C1=O)c1cc2cc(C(F)(F)P(=O)(O)O)ccc2s1 [Compound 268, ((2-(((5S,8S,10aR)-8-([1,1′-biphenyl]-4-ylcarbamoyl)-6-oxo-3-(phenethylsulfonyl)decahydropyrrolo[1,2-a][1,5]diazocin-5-yl)carbamoyl)benzo[b]thiophen-5-yl)difluoromethyl)phosphonic acid]
≤ 0.3	1 to 10	Cc1ccc2[nH]nc(C(=O)N3CC[C@H]4CC[C@@H](C(=O)N(C)C5CC5)N4C(=O)[C@@H](NC(=O)c4ccc5ccc(C(F)(F)P(=O)(O)O)cc5c4)C3)c2c1 [Compound 270, ((7-(((5S,8S,10aR)-8-(cyclopropyl(methyl)carbamoyl)-3-(5-methyl-1H-indazole-3-carbonyl)-6-oxodecahydropyrrolo[1,2-a][1,5]diazocin-5-yl)carbamoyl)naphthalen-2-yl)difluoromethyl)phosphonic acid]
≤ 0.3	1 to 10	Cc1ccc2[nH]nc(C(=O)N3CC[C@H]4CC[C@@H](C(=O)N(C)C)N4C(=O)[C@@H](NC(=O)c4ccc5ccc(C(F)(F)P(=O)(O)O)cc5c4)C3)c2c1 [Compound 271, ((7-(((5S,8S,10aR)-8-(dimethylcarbamoyl)-3-(5-methyl-1H-indazole-3-carbonyl)-6-oxodecahydropyrrolo[1,2-a][1,5]diazocin-5-yl)carbamoyl)naphthalen-2-yl)difluoromethyl)phosphonic acid]
3 to 30	≤ 0.1	CNC(=O)[C@@H]1CC[C@@H]2CCN(Cc3ccn4ccnc4c3)C[C@H](NC(=O)c3cc4cc(C(F)(F)P(=O)(O)O)ccc4s3)C(=O)N21 [Compound 272, (difluoro(2-(((5S,8S,10aR)-3-(imidazo[1,2-a]pyridin-7-ylmethyl)-8-(methylcarbamoyl)-6-oxodecahydropyrrolo[1,2-a][1,5]diazocin-5-yl)carbamoyl)benzo[b]thiophen-5-yl)methyl)phosphonic acid]
3 to 30	≤ 0.1	CN1CCN(c2ccccc2CN2CC[C@H]3CC[C@@H](C(=O)N4CC(c5cccnc5)C4)N3C(=O)[C@@H](NC(=O)c3cc4cc(C(F)(F)P(=O)(O)O)ccc4s3)C2)CC1 [Compound 274, (difluoro(2-(((5S,8S,10aR)-3-(2-(4-methylpiperazin-1-yl)benzyl)-6-oxo-8-(3-(pyridin-3-yl)azetidine-1-carbonyl)decahydropyrrolo[1,2-a][1,5]diazocin-5-yl)carbamoyl)benzo[b]thiophen-5-yl)methyl)phosphonic acid]
0.3 to 3	1 to 10	N#Cc1ccccc1-c1ccc(NC(=O)[C@@H]2CC[C@@H]3CCN(C(=O)Cc4ccccc4)C[C@H](NC(=O)c4cc5cc(C(F)(F)P(=O)(O)O)ccc5[nH]4)C(=O)N32)c(F)c1 [Compound 276, ((2-(((5S,8S,10aR)-8-((2′-cyano-3-fluoro-[1,1′-biphenyl]-4-yl)carbamoyl)-6-oxo-3-(2-phenylacetyl)decahydropyrrolo[1,2-a][1,5]diazocin-5-yl)carbamoyl)-1H-indol-5-yl)difluoromethyl)phosphonic acid]
